Legend:
MCF7/ERα Y537S cells = assay: Inhibitory activity on proliferation of ERα mutant-expressing MCF7 cells; format: cell-based; conditions: Homo sapiens, 144 h, 6 days incubation, CellTiter-Glo, read-out: IC50 (nM), inhibition of proliferation of ERα mutant-expressing MCF7 cells
Method: The objective of this experiment was to determine the inhibitory activity of the compounds of the present disclosure on the proliferation of ERα mutant-expressing MCF7 cells.
(§1) MCF7 cells expressing the ERα Y537S mutant were constructed by lentiviral infection. MCF7/ERα Y537S cells were cultured in an MEM (GE Healthcare, SH30024.01) complete medium containing 10% fetal bovine serum and 1 g/mL puromycin. On day 1 of the experiment, cells were seeded into a 96-well plate at a density of 3,000 cells/well using MEM containing 2% fetal bovine serum, with each well containing 135 µL of cell suspension. The plate was incubated in a 37° C., 5% CO2 cell incubator overnight. The next day, different concentrations of test compounds prepared in media were added at 15 μL/well. The final concentrations of the compounds were 9 concentration points obtained by 4-fold serial dilution from 1000 nM. A blank control containing 0.5% DMSO was set up. The plate was incubated in a 37° C., 5% CO2 cell incubator for 6 days. On day 8, the 96-well cell culture plate was taken out, and CellTiter-Glo® Luminescent Cell Viability Assay (Promega, G7573) was added at 75 µL/well. After the plate was left at room temperature for 10 min, luminescence signal readings were taken on a multilabel microplate reader (PerkinElmer, VICTOR 3). The IC50 values for the inhibitory activity of the compounds were calculated from the concentrations of the compounds and the luminescence signal readings using Graphpad Prism software.

MCF7 cells = assay: Inhibitory effects on MCF7 cell proliferation (CellTiter-Glo); format: cell-based; conditions: Homo sapiens, 144 h, 6 days incubation, read-out: IC50 (nM), inhibition of MCF7 cell proliferation
Method: as §1, with “(TCHu74, National Collection of Authenticated Cell Cultures)” for “expressing the ERα Y537S mutant were constructed by lentiviral infection. MCF7/ERα Y537S cells”, “serum.” for “serum and 1 g/mL puromycin.”, “experiment, MCF7” for “experiment,”, “μL” for “µL”, “μL/well.” for “µL/well.”

| Compound | IC50 (MCF7/ERα Y537S cells) [nM] | IC50 (MCF7 cells) [nM] |
| --- | --- | --- |
| CC(C)[C@H]1CCc2cc(O)ccc2[C@H]1c1ccc(N2CCC(CN3CCN(c4ccc5c(c4)CN([C@H]4CCC(=O)NC4=O)C5=O)CC3)CC2)cc1 [Example 24, (S)-3-(5-(4-((1-(4-((1R,2R)-6-Hydroxy-2-isopropyl-1,2,3,4-tetrahydronaphthalen-1-yl)phenyl)piperidin-4-yl)methyl)piperazin-1-yl)-1-oxoisoindolin-2-yl)piperidine-2,6-dione] | 5.44 | 1.21 |
| C[C@H]1CCc2cc(O)ccc2[C@H]1c1ccc(N2CCC(CN3CCN(c4ccc5c(c4)CN([C@H]4CCC(=O)NC4=O)C5=O)CC3)CC2)cc1 [Example 27, (S)-3-(5-(4-((1-(4-((1R,2S)-6-Hydroxy-2-methyl-1,2,3,4-tetrahydronaphthalen-1-yl)phenyl)piperidin-4-yl)methyl)piperazin-1-yl)-1-oxoisoindolin-2-yl)piperidine-2,6-dione] | 44.6 | 13.4 |
| CC[C@H]1CCc2cc(O)ccc2[C@H]1c1ccc(N2CCC(CN3CCN(c4ccc5c(c4)CN([C@H]4CCC(=O)NC4=O)C5=O)CC3)CC2)cc1 [Example 28, (S)-3-(5-(4-((1-(4-((1R,2S)-6-Hydroxy-2-ethyl-1,2,3,4-tetrahydronaphthalen-1-yl)phenyl)piperidin-4-yl)methyl)piperazin-1-yl)-1-oxoisoindolin-2-yl)piperidine-2,6-dione] | 5.21 | 1.51 |
| CCC[C@H]1CCc2cc(O)ccc2[C@H]1c1ccc(N2CCC(CN3CCN(c4ccc5c(c4)CN([C@H]4CCC(=O)NC4=O)C5=O)CC3)CC2)cc1 [Example 29, (S)-3-(5-(4-((1-(4-((1R,2S)-6-Hydroxy-2-propyl-1,2,3,4-tetrahydronaphthalen-1-yl)phenyl)piperidin-4-yl)methyl)piperazin-1-yl)-1-oxoisoindolin-2-yl)piperidine-2,6-dione] | 3.62 | 0.78 |
| O=C1CC[C@H](N2Cc3cc(N4CCN(CC5CCN(c6ccc([C@@H]7c8ccc(O)cc8CC[C@@H]7Cc7ccccc7)cc6)CC5)CC4)ccc3C2=O)C(=O)N1 [Example 30, (S)-3-(5-(4-((1-(4-((1R,2R)-2-Benzyl-6-hydroxy-1,2,3,4-tetrahydronaphthalen-1-yl)phenyl)piperidin-4-yl)methyl)piperazin-1-yl)-1-oxoisoindolin-2-yl)piperidine-2,6-dione] | 12.7 | 3.02 |
| O=C1CC[C@H](N2Cc3cc(N4CCN(CC5CCN(c6ccc([C@@H]7c8ccc(O)cc8OC[C@@H]7C7CCC7)cc6)CC5)CC4)ccc3C2=O)C(=O)N1 [Example 32, (S)-3-(5-(4-((1-(4-((3R,4R)-3-Cyclobutyl-7-hydroxychroman-4-yl)phenyl)piperidin-4-yl)methyl)piperazin-1-yl)-1-oxoisoindolin-2-yl)piperidine-2,6-dione] | 28.8 | 8.34 |
| O=C1CC[C@H](N2Cc3cc(N4CCN(CC5CCN(c6ccc([C@@H]7c8ccc(O)cc8CC[C@@H]7CC7CCC7)cc6)CC5)CC4)ccc3C2=O)C(=O)N1 [Example 35, (S)-3-(5-(4-((1-(4-((1R,2R)-2-(Cyclobutylmethyl)-6-hydroxy-1,2,3,4-tetrahydronaphthalen-1-yl)phenyl)piperidin-4-yl)methyl)piperazin-1-yl)-1-oxoisoindolin-2-yl)piperidine-2,6-dione] | 8.48 | 3 |
| CC(C)C[C@H]1CCc2cc(O)ccc2[C@H]1c1ccc(N2CCC(CN3CCN(c4ccc5c(c4)CN([C@H]4CCC(=O)NC4=O)C5=O)CC3)CC2)c(F)c1 [Example 37, (S)-3-(5-(4-((1-(2-Fluoro-4-((1R,2R)-6-hydroxy-2-isobutyl-1,2,3,4-tetrahydronaphthalen-1-yl)phenyl)piperidin-4-yl)methyl)piperazin-1-yl)-1-oxoisoindolin-2-yl)piperidine-2,6-dione] | 5.27 | 1.46 |
| CCC(CC)C[C@H]1CCc2cc(O)ccc2[C@H]1c1ccc(N2CCC(CN3CCN(c4ccc5c(c4)CN([C@H]4CCC(=O)NC4=O)C5=O)CC3)CC2)cc1 [Example 38, (S)-3-(5-(4-((1-(4-((1R,2R)-6-Hydroxy-2-(2-ethylbutyl)-1,2,3,4-tetrahydronaphthalen-1-yl)phenyl)piperidin-4-yl)methyl)piperazin-1-yl)-1-oxoisoindolin-2-yl)piperidine-2,6-dione] | 13.8 | 4.64 |
| CC(C)(C)C[C@H]1CCc2cc(O)ccc2[C@H]1c1ccc(N2CCC(CN3CCN(c4ccc5c(c4)CN([C@H]4CCC(=O)NC4=O)C5=O)CC3)CC2)cc1 [Example 39, (S)-3-(5-(4-((1-(4-((1R,2R)-6-Hydroxy-2-neopentyl-1,2,3,4-tetrahydronaphthalen-1-yl)phenyl)piperidin-4-yl)methyl)piperazin-1-yl)-1-oxoisoindolin-2-yl)piperidine-2,6-dione] | 15.8 | 5.23 |
| CC(C)CC[C@H]1CCc2cc(O)ccc2[C@H]1c1ccc(N2CCC(CN3CCN(c4ccc5c(c4)CN([C@H]4CCC(=O)NC4=O)C5=O)CC3)CC2)cc1 [Example 40, (S)-3-(5-(4-((1-(4-((1R,2S)-6-Hydroxy-2-isopentyl-1,2,3,4-tetrahydronaphthalen-1-yl)phenyl)piperidin-4-yl)methyl)piperazin-1-yl)-1-oxoisoindolin-2-yl)piperidine-2,6-dione] | 8.89 | 3.17 |
| CC(C)C[C@H]1CCc2cc(O)ccc2[C@H]1c1ccc(N2CCC(CN3CCN(c4ccc5c(c4)CN([C@@H]4CCC(=O)NC4=O)C5=O)CC3)CC2)cc1 [Example 42, (R)-3-(5-(4-((1-(4-((1R,2R)-6-Hydroxy-2-isobutyl-1,2,3,4-tetrahydronaphthalen-1-yl)phenyl)piperidin-4-yl)methyl)piperazin-1-yl)-1-oxoisoindolin-2-yl)piperidine-2,6-dione] | 3.09 | 0.88 |
| O=C1CC[C@@H](N2Cc3cc(N4CCN(CC5CCN(c6ccc([C@@H]7c8ccc(O)cc8CC[C@@H]7C7CCOCC7)cc6F)CC5)CC4)ccc3C2=O)C(=O)N1 [Example 43, (R)-3-(5-(4-((1-(2-Fluoro-4-((1R,2R)-6-hydroxy-2-(tetrahydro-2H-pyran-4-yl)-1,2,3,4-tetrahydronaphthalen-1-yl)phenyl)piperidin-4-yl)methyl)piperazin-1-yl)-1-oxoisoindolin-2-yl)piperidine-2,6-dione] | 36.3 | 3.57 |

From patent US20250099596A1, “TETRAHYDRONAPHTHALENE COMPOUND, AND PREPARATION METHOD THEREFOR AND USE THEREOF IN MEDICINE” (Jiangsu Hengrui Pharmaceuticals Co., Ltd., priority 2021, published 2025)
